Test results published in patent US20250215013A1, “SUBSTITUTED TRICYCLIC COMPOUNDS AS PARP INHIBITORS AND THE USE THEREOF” (IMPACT THERAPEUTICS (SHANGHAI), INC., priority 2022, published 2025).
Read-outs that look alike come from different tables or passages of the source.

Tests used:
[1] = target: recombinant poly(ADP-ribose) polymerase 2 (PARP2) (Homo sapiens, UniProt Q9UGN5); test: PARP2 chemiluminescent assay; format: biochemical; settings: inhibition of PARP2 enzyme activity, chemiluminescence
[2] = test system: MDA-MB-436 cells; test: Growth inhibition assay against BRCA mutant human breast cancer MDA-MB-436 cell line (CCK-8); format: cell-based; settings: Homo sapiens, MDA-MB-436, […], proliferation of MDA-MB-436 cells, 7 days
[3] = target: T1, recombinant poly(ADP-ribose) polymerase 1 (PARP1) (Homo sapiens (Human), UniProt P09874); test: biochemical
[4] = target: recombinant poly(ADP-ribose) polymerase 2 (PARP2); test: PARP2 chemiluminescent assay; format: biochemical; settings: inhibition of PARP2 enzyme activity, chemiluminescence
[5] = target: PDE3A (Homo sapiens (Human), UniProt Q14432); test: PDE3A fluorescence polarization (FP) assay; format: biochemical; settings: PDE3A enzyme activity, FAM-cAMP substrate
Procedure: A PDE3A fluorescence polarization (FP) assay in a multi-step format was performed using black, round bottom 384-well plates (Corning, 4514). The testing compounds were serially diluted from stock solutions to 11 concentrations with a 3-fold dilution factor using DMSO. Fifty nl of compound dilutions was mixed with 5 μl of reaction buffer (10 mM Tris-HCl, pH 7.2, 10 mM MgCl2, 0.05% NaN3, 0.1% phosphate-free BSA) containing 0.2 μM FAM-cAMP (BPS, 60200) and 2 nM PDE3A (Sino Biological, 11908-H20B1) enzyme, and incubated for 60 min at 25° C. Afterwards, 15 μl binding agent mixture (Molecular Devices, R8124) was added to each well and the plate was incubated for 60 min at 25° C. The plate was loaded to a BMG PHERAstar FSX to read Fluorescence Polarization (FP) values at a setting of: Ex: 485 nm and Em: 520 nm. Emission light intensity with polarizers parallel (Emi) and emission light intensity with polarizers perpendicular (Emi) were recorded. The Polarization (mP) values were calculated using the following formula: mP=(SignalEml−SignalEm⊥)/(SignalEml+SignalEm⊥).
• 1) The inhibition % of a compound dose is calculated as:
[formula] • wherein mPMin and mPMax refer to the polarization readings in the condition of substrate only and substrate+enzyme, respectively. • 2) The IC50 values were calculated from non-linear curve fitting using following regression equation using a commercial curve fitting software GraphPad Prism 9.2.0.
[formula] • wherein, X refers to Log of compound concentration and Y refers to % Inhibition.

[6] = target: T1, recombinant poly(ADP-ribose) polymerase 1 (PARP1)

Chain of recombinant poly(ADP-ribose) polymerase 2 (PARP2) (Homo sapiens, UniProt Q9UGN5) (Q9UGN5 whole entry, looked up): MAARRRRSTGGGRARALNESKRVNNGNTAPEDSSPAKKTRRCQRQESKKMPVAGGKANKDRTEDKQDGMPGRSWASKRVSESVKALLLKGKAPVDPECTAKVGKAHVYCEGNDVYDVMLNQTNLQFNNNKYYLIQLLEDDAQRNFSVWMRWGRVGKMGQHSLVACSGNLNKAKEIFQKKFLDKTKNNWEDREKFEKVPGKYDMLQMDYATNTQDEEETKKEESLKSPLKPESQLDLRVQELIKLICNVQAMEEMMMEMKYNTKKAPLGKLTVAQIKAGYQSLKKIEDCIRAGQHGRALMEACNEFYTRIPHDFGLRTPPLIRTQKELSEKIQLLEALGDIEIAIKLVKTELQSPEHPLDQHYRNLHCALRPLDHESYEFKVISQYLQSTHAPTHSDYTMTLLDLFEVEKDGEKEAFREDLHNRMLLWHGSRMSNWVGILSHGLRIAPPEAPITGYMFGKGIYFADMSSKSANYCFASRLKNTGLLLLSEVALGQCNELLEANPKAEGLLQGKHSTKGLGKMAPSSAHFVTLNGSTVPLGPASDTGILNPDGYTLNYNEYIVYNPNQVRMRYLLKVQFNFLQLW
T1 sequence (P09874 whole entry): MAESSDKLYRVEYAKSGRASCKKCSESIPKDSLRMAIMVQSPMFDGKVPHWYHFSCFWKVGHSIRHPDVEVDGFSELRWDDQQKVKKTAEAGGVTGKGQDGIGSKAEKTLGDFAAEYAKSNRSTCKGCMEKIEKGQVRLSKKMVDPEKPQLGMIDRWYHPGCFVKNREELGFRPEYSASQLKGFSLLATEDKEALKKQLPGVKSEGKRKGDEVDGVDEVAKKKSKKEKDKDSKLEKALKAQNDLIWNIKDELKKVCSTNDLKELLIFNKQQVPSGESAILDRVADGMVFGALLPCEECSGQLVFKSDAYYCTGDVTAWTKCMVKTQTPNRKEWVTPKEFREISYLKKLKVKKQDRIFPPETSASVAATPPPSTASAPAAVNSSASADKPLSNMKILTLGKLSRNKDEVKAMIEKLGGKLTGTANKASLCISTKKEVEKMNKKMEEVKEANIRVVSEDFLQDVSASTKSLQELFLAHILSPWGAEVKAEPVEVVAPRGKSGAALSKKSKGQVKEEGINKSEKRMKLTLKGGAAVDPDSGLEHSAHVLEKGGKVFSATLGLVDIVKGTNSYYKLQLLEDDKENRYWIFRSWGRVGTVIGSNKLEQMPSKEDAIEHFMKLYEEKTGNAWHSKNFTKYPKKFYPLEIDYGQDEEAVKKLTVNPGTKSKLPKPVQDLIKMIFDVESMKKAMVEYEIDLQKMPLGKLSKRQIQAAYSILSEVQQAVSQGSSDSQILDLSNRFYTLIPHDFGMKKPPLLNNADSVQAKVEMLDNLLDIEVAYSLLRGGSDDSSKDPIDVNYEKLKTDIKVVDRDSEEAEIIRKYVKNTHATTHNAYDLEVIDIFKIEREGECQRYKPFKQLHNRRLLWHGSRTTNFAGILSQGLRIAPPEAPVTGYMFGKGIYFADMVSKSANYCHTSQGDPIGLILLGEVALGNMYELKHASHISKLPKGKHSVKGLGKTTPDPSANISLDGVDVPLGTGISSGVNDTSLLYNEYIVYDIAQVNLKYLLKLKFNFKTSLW
Chain of PDE3A (Q14432 whole entry): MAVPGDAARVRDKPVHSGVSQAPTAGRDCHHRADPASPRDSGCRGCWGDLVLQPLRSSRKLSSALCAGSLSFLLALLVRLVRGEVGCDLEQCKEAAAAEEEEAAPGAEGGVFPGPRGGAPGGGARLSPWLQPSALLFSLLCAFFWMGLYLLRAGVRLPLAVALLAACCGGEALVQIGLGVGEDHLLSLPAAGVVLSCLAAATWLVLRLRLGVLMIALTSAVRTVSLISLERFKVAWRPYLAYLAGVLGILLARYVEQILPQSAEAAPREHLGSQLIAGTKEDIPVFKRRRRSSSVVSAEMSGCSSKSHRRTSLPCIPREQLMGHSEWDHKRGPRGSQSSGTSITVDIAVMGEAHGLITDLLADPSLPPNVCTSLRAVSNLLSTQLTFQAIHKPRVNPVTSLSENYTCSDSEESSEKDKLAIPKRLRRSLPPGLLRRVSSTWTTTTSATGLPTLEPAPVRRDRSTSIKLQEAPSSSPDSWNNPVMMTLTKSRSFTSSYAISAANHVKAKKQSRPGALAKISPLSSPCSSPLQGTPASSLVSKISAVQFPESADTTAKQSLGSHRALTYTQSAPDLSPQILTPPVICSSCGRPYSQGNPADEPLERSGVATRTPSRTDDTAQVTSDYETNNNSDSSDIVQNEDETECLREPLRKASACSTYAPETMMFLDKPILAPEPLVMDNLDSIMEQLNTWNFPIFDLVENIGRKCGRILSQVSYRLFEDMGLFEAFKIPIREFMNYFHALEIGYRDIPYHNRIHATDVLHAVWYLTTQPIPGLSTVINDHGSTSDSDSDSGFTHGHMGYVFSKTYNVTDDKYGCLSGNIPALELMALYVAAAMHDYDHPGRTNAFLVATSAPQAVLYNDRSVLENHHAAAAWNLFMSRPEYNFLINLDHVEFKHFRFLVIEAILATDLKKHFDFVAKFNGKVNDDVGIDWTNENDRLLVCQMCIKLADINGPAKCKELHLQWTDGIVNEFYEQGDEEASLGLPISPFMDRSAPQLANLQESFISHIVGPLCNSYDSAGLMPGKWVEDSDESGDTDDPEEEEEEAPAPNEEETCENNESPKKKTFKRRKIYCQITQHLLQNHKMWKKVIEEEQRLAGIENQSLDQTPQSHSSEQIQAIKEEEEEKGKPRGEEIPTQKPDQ

Row | Structure (SMILES) | IC50 [1] | IC50 [2] | IC50 [3] | IC50 [4] | IC50 [5] | IC50 [6]
1 | CNC(=O)c1ccc(N2CCN(Cc3ccc4c(c3)[nH]c(=O)c3ccsc34)CC2)c(C)n1 [Example 1, 7-((4-(2-methyl-6-(methylcarbamoyl)pyridin-3-yl)piperazin-1-yl)methyl)thieno[3,2-c]quinolin-4(5H)-one] | 78 nM |  |  |  |  | 
2 | CNC(=O)c1ccc(N2CCN(Cc3ccc4c(c3)[nH]c(=O)c3cscc34)CC2)c(C)n1 [Example 3, 7-((4-(2-methyl-6-(methylcarbamoyl)pyridin-3-yl)piperazin-1-yl)methyl)thieno[3,4-c]quinolin-4(5H)-one] | 18.3 nM |  |  |  |  | 
3 | CNC(=O)c1ccc(N2CCN(Cc3ccc4c(c3)[nH]c(=O)c3sccc34)CC2)c(C)n1 [Example 5, 7-((4-(2-methyl-6-(methylcarbamoyl)pyridin-3-yl)piperazin-1-yl)methyl)thieno[2,3-c]quinolin-4(5H)-one] | 10.1 nM |  |  |  |  | 
4 | CNC(=O)c1ccc(N2CCN(Cc3ccc4c(c3)[nH]c(=O)c3cnn(C)c34)CC2)c(C)n1 [Example 8, 7-((4-(2-methyl-6-(methylcarbamoyl)pyridin-3-yl)piperazin-1-yl)methyl)-1-methyl-1,5-dihydro-4H-pyrazolo[4,3-c]quinolin-4-one] | 54.9 nM |  |  |  |  | 
5 | CNC(=O)c1ccc(N2CCN(Cc3cc(F)c4c(c3)[nH]c(=O)c3cscc34)CC2)c(C)n1 [Example 21, 7-((4-(2-methyl-6-(methylcarbamoyl)pyridin-3-yl)piperazin-1-yl)methyl)-9-fluorothieno[3,4-c]quinolin-4(5H)-one] | 13.3 nM |  |  |  |  | 
6 | CNC(=O)c1ccc(N2CCN(Cc3cc(F)c4c(c3)[nH]c(=O)c3sccc34)CC2)c(C)n1 [Example 38, 9-fluoro-7-((4-(2-methyl-6-(methylcarbamoyl)pyridin-3-yl)piperazin-1-yl)methyl)thieno[2,3-c]quinolin-4(5H)-one] | 16.9 nM | 3.73 nM |  |  |  | 
7 | CNC(=O)c1ccc(C2CCN(Cc3ccc4c([nH]c(=O)c5occc54)c3F)CC2)c(F)n1 [Example 109, 7-((4-(2-fluoro-6-(methylcarbamoyl)pyridin-3-yl)piperidin-1-yl)methyl)-6-fluorofuro[2,3-c]quinolin-4(5H)-one] | 5370 nM | 5.09 nM | 0.83 nM |  |  | 
8 | Cc1cnn2c1c(=O)[nH]c1c(F)c(CN3CCN(c4ccc(C(=O)NCC(F)F)nc4F)CC3)ccc12 [Example 129, 7-((4-(2-fluoro-6-(2,2-difluoroethylcarbamoyl)pyridin-3-yl)piperazin-1-yl)methyl)-6-fluoro-3-methylpyrazolo[1,5-a]quinoxalin-4(5H)-one] |  | 5.02 nM |  | > 10000 nM | > 30000 nM | 0.5 nM
9 | CNC(=O)c1ccc(N2CCN(Cc3ccc4c([nH]c(=O)c5c(C)cnn54)c3F)CC2)c(C(F)(F)F)n1 [Example 133, 7-((4-(2-trifluoromethyl-6-(methylcarbamoyl)pyridin-3-yl)piperazin-1-yl)methyl)-6-fluoro-3-methylpyrazolo[1,5-a]quinoxalin-4(5H)-one] |  | 23 nM |  | > 10000 nM | > 30000 nM | 0.57 nM
10 | CNC(=O)c1ccc(N2CCN(Cc3ccc4c([nH]c(=O)n5cc(C)nc45)c3F)CC2)c(F)n1 [Example 140, 8-((4-(2-fluoro-6-(methylcarbamoyl)pyridin-3-yl)piperazin-1-yl)methyl)-2-methyl-7-fluoroimidazo[1,2-c]quinazolin-5(6H)-one] |  | 2.24 nM |  | 1250 nM | 28900 nM | 0.84 nM
11 | CNC(=O)c1ccc(N2CCN(Cc3ccc4c([nH]c(=O)n5c(C)cnc45)c3F)CC2)c(F)n1 [Example 141, 8-((4-(2-fluoro-6-(methylcarbamoyl)pyridin-3-yl)piperazin-1-yl)methyl)-3-methyl-7-fluoroimidazo[1,2-c]quinazolin-5(6H)-one] |  | 24.6 nM |  | 1890 nM | > 25000 nM | 1.29 nM
12 | CNC(=O)c1ccc(N2CCN(Cc3ccc4c(c3)[nH]c(=O)c3cocc34)CC2)c(F)n1 [Example 143, 7-((4-(2-fluoro-6-(methylcarbamoyl)pyridin-3-yl)piperazin-1-yl)methyl)furo[3,4-c]quinolin-4(5H)-one] |  | 3.5 nM |  | 166 nM | 1200 nM | 0.46 nM
13 | O=C(NCC(F)F)c1ccc(N2CCN(Cc3ccc4c([nH]c(=O)c5occc54)c3F)CC2)c(F)n1 [Example 147, 6-fluoro-7-((4-(2-fluoro-6-(2,2-difluoroethylcarbamoyl)pyridin-3-yl)piperazin-1-yl)methyl)furo[2,3-c]quinolin-4(5H)-one] | 2400 nM | 2 nM | 0.56 nM |  | 10900 nM | 
14 | CNC(=O)c1ccc(C2=CCN(Cc3ccc4c([nH]c(=O)c5c(C)cnn54)c3F)CC2)cn1 [Example 152, 6-fluoro-3-methyl-7-((6-methylcarbamoyl-3′,6′-dihydro-[3,4′-bipyridin]-1′(2′H)-yl)methyl)pyrazolo[1,5-a]quinoxalin-4(5H)-one] | > 1110 nM | 19.3 nM |  |  | > 25000 nM | 
15 | CNC(=O)c1ccc(C2=CCN(Cc3ccc4c([nH]c(=O)c5c(C)cnn54)c3F)CC2)c(F)n1 [Example 165, 6-fluoro-7-((2-fluoro-6-methylcarbamoyl-3′,6′-dihydro-[3,4′-bipyridin]-1′(2′H)-yl)methyl)-3-methylpyrazolo[1,5-a]quinoxalin-4(5H)-one] | > 3330 nM | 2.75 nM |  |  |  | 0.26 nM
16 | CNC(=O)c1ccc(N2CCN(Cc3cc4[nH]c(=O)c5c(C)cnn5c4cc3F)CC2)c(F)n1 [Example 168, 8-fluoro-7-((4-(2-fluoro-6-(methylcarbamoyl)pyridin-3-yl)piperazin-1-yl)methyl)-3-methylpyrazolo[1,5-a]quinoxalin-4(5H)-one] |  | 8.02 nM |  | 145 nM | > 30000 nM | 0.61 nM
17 | CNC(=O)c1ccc(N2CCN(Cc3cc(F)c4c(c3)[nH]c(=O)c3c(F)cnn34)CC2)c(F)n1 [Example 177, 3,9-difluoro-7-((4-(2-fluoro-6-(methylcarbamoyl)pyridin-3-yl)piperazin-1-yl)methyl)pyrazolo[1,5-a]quinoxalin-4(5H)-one] |  | 1.58 nM |  | 93.5 nM | 630 nM | 0.32 nM
18 | CNC(=O)c1ccc(N2CCN(Cc3ccc4c([nH]c(=O)c5c(C(F)(F)F)cnn54)c3F)CC2)c(F)n1 [Example 179, 7-((4-(2-fluoro-6-(methylcarbamoyl)pyridin-3-yl)piperazin-1-yl)methyl)-3-trifluoromethyl-6-fluoropyrazolo[1,5-a]quinoxalin-4(5H)-one] |  | 4.49 nM |  | 67.1 nM | > 30000 nM | 0.5 nM
19 | CCNC(=O)c1ccc(N2CCN(Cc3ccc4c([nH]c(=O)c5c(F)cnn54)c3F)CC2)c(F)n1 [Example 180, 7-((4-(2-fluoro-6-(ethylcarbamoyl)pyridin-3-yl)piperazin-1-yl)methyl)-3,6-difluoropyrazolo[1,5-a]quinoxalin-4(5H)-one] |  | 1.24 nM |  | 431 nM | > 30000 nM | 0.24 nM
20 | O=C(NC1CC1)c1ccc(N2CCN(Cc3ccc4c([nH]c(=O)c5c(F)cnn54)c3F)CC2)c(F)n1 [Example 181, 7-((4-(2-fluoro-6-(cyclopropylcarbamoyl)pyridin-3-yl)piperazin-1-yl)methyl)-3,6-difluoropyrazolo[1,5-a]quinoxalin-4(5H)-one] |  | 1.9 nM |  | 315 nM | > 30000 nM | 0.23 nM
21 | CNC(=O)c1ccc(N2CCN(Cc3cc4[nH]c(=O)c5c(F)cnn5c4cc3F)CC2)c(F)n1 [Example 182, 7-((4-(2-fluoro-6-(methylcarbamoyl)pyridin-3-yl)piperazin-1-yl)methyl)-3,8-difluoropyrazolo[1,5-a]quinoxalin-4(5H)-one] |  | 1.4 nM |  | 93.5 nM | > 30000 nM | 0.32 nM
22 | CNC(=O)c1ccc(N2CCN(Cc3cc4[nH]c(=O)c5c(F)cnn5c4cc3F)CC2)c(C)n1 [Example 183, 7-((4-(2-methyl-6-(methylcarbamoyl)pyridin-3-yl)piperazin-1-yl)methyl)-3,8-difluoropyrazolo[1,5-a]quinoxalin-4(5H)-one] |  | 1.76 nM |  | 1390 nM | 1590 nM | 0.28 nM
23 | CNC(=O)c1ccc(C2=CCN(Cc3ccc4c([nH]c(=O)c5c(F)cnn54)c3F)CC2)c(F)n1 [Example 197, 7-((2-fluoro-6-methylcarbamoyl-3′,6′-dihydro-[3,4′-bipyridin]-1′(2′H)-yl)methyl)-3,6-difluoropyrazolo[1,5-a]quinoxalin-4(5H)-one] | 774 nM | 1.19 nM |  |  |  | 0.15 nM
